Tested on: SKM MYOFIBRIL
Assay: SKM myofibril AC1.4 (ATPase, PK/LDH coupled enzyme system); note: unit not given here
Format: biochemical
Conditions: screen at pCa=6.5

Compound | SKM MYOFIBRIL AC1.4 (median)
Cc1ccn2c(NCc3cccc(F)c3)c(-c3ccccc3O)nc2c1 [2-(3-{[(3-fluorophenyl)methyl]amino}-7-methyl-4-hydroimidazo[1,2-a]pyridin-2-yl)phenol] | 1.4096
OCc1ccc2nc(-c3ccccc3O)c(NCc3cccc(Cl)c3)n2c1 [2-(3-{[(3-chlorophenyl)methyl]amino}-6-(hydroxymethyl)-4-hydroimidazo[1,2-a]pyridin-2-yl)phenol] | 1.6756
Cc1ccn2c(NC3CCCC3)c(-c3ccccc3O)nc2c1 [2-[3-(cyclopentylamino)-7-methyl-4-hydroimidazo[1,2-a]pyridin-2-yl]phenol] | 11.1785
Oc1ccc(-c2nc3ccccn3c2NCc2cccc(F)c2)cc1 [4-(3-{[(3-fluorophenyl)methyl]amino}-4-hydroimidazo[1,2-a]pyridin-2-yl)phenol] | 28.3763
COc1cccc(CNc2c(-c3ccccc3O)nc3cc(C)ccn23)c1 [2-(3-{[(3-methoxyphenyl)methyl]amino}-7-methyl-4-hydroimidazo[1,2-a]pyridin-2-yl)phenol] | 10.2909
O=C(NCCO)c1ccc2nc(-c3ccccc3O)c(NCc3ccc(F)cc3)n2c1 [(3-{[(4-fluorophenyl)methyl]amino}-2-(2-hydroxyphenyl)(4-hydroimidazo[1,2-a]pyridin-6-yl))-N-(2-hydroxyethyl)carboxamide] | 2.2384
Cc1ccc2nc(-c3ccc(O)cc3)c(NC3CCCC3)n2c1 [4-[3-(cyclopentylamino)-6-methyl-4-hydroimidazo[1,2-a]pyridin-2-yl]phenol] | 13.5754
Cc1ccn2c(NCc3ccc(F)cc3F)c(-c3ccccc3O)nc2c1 [2-(3-{[(2,4-difluorophenyl)methyl]amino}-7-methyl-4-hydroimidazo[1,2-a]pyridin-2-yl)phenol] | 0.959
Cc1ccc2nc(-c3ccccc3O)c(NCc3cccc(Cl)c3)n2n1 [2-(3-{[(3-chlorophenyl)methyl]amino}-6-methyl-4-hydroimidazo[1,2-e]pyridazin-2-yl)phenol] | 3.5753
Oc1ccccc1-c1nc2ccccn2c1NC1CCCC1 [2-[3-(cyclopentylamino)-4-hydroimidazo[1,2-a]pyridin-2-yl]phenol] | 11.2917
NCc1ccc2nc(-c3ccccc3O)c(NCc3cccc(Cl)c3)n2c1 [2-(6-(aminomethyl)-3-{[(3-chlorophenyl)methyl]amino}-4-hydroimidazo[1,2-a]pyridin-2-yl)phenol] | 0.2349
C[C@H](Nc1c(-c2ccc(O)cc2)nc2ccccn12)C(C)(C)C [4-{3-[((1S)-1,2,2-trimethylpropyl)amino]-4-hydroimidazo[1,2-a]pyridin-2-yl}phenol] | 11.8489
NC(=O)c1ccc2nc(-c3ccccc3O)c(NCc3ccc(F)cc3)n2c1 [3-{[(4-fluorophenyl)methyl]amino}-2-(2-hydroxyphenyl)-4-hydroimidazo[1,2-a]pyridine-6-carboxamide] | 2.0079
CN(C)CCNC(=O)c1ccc2nc(-c3ccccc3O)c(NCc3cccc(Cl)c3)n2c1 [N-[2-(dimethylamino)ethyl](3-{[(3-chlorophenyl)methyl]amino}-2-(2-hydroxyphenyl)(4-hydroimidazo[1,2-a]pyridin-6-yl))carboxamide] | 2.2231
OCc1ccc2nc(-c3ccccc3O)c(NCc3ccc(F)cc3)n2c1 [2-(3-{[(4-fluorophenyl)methyl]amino}-6-(hydroxymethyl)-4-hydroimidazo[1,2-a]pyridin-2-yl)phenol] | 4.3564
Cc1cccn2c(NC3CCCCC3)c(-c3ccc(O)cc3)nc12 [4-[3-(cyclohexylamino)-8-methyl-4-hydroimidazo[1,2-a]pyridin-2-yl]phenol] | 8.8767
c1csc(-c2nc3ccccn3c2NC2CCCCC2)c1 [cyclohexyl(2-(2-thienyl)(4-hydroimidazo[1,2-a]pyridin-3-yl))amine] | 16.7359

Compound | SKM MYOFIBRIL AC1.4 (median)
N#Cc1ccc2nc(-c3ccccc3O)c(NCc3cccc(Cl)c3)n2c1 [3-{[(3-chlorophenyl)methyl]amino}-2-(2-hydroxyphenyl)-4-hydroimidazo[1,2-a]pyridine-6-carbonitrile] | 2.6805
COc1ccc(-c2nc3ccc(C)cn3c2NC2CCCCC2)cc1O [5-[3-(cyclohexylamino)-6-methyl(4-hydroimidazo[1,2-a]pyridin-2-yl)]-2-methoxyphenol] | 6.0251
CNC(=O)c1ccc2nc(-c3ccccc3O)c(NCc3ccc(F)cc3)n2c1 [(3-{[(4-fluorophenyl)methyl]amino}-2-(2-hydroxyphenyl)(4-hydroimidazo[1,2-a]pyridin-6-yl))-N-methylcarboxamide] | 1.8401
Cc1cn2c(NCc3cccc(Cl)c3)c(-c3ccccc3O)nc2c(C)n1 [2-(3-{[(3-chlorophenyl)methyl]amino}-6,8-dimethyl-4-hydroimidazo[1,2-a]pyrazin-2-yl)phenol] | 6.4593
Cc1ccn2c(NCC(=O)N3CCCCC3)c(-c3ccccc3O)nc2c1 [2-{[2-(2-hydroxyphenyl)-7-methyl(4-hydroimidazo[1,2-a]pyridin-3-yl)]amino}-1-piperidylethan-1-one] | 40.2086
CCc1ccn2c(NCc3cccc(Cl)c3)c(-c3ccccc3O)nc2c1 [2-(3-{[(3-chlorophenyl)methyl]amino}-7-ethyl-4-hydroimidazo[1,2-a]pyridin-2-yl)phenol] | 0.9168
Oc1ccccc1-c1nc2ccc(Cl)cn2c1NCc1ccc(F)cc1 [2-(6-chloro-3-{[(4-fluorophenyl)methyl]amino}-4-hydroimidazo[1,2-a]pyridin-2-yl)phenol] | 3.5116
Cc1ccn2c(NCc3ccccc3F)c(-c3ccccc3O)nc2c1 [2-(3-{[(2-fluorophenyl)methyl]amino}-7-methyl-4-hydroimidazo[1,2-a]pyridin-2-yl)phenol] | 1.0036
COC(=O)c1ccc2nc(-c3ccccc3O)c(NCc3cccc(Cl)c3)n2c1 [methyl 3-{[(3-chlorophenyl)methyl]amino}-2-(2-hydroxyphenyl)-4-hydroimidazo[1,2-a]pyridine-6-carboxylate] | 2.0174
Cc1ccn2c(NCc3ccc(F)cc3)c(-c3ccc(O)cc3)nc2c1 [4-(3-{[(4-fluorophenyl)methyl]amino}-7-methyl-4-hydroimidazo[1,2-a]pyridin-2-yl)phenol] | 44.5161
COc1cccc2nc(O)c(-c3nc4cc(C)ccn4c3NCc3cccc(Cl)c3)cc12 [3-(3-{[(3-chlorophenyl)methyl]amino}-7-methyl(4-hydroimidazo[1,2-a]pyridin-2-yl))-5-methoxyquinolin-2-ol] | 2.3608
Oc1ccc(-c2nc3ccc(F)cn3c2NC2CCCC2)cc1 [4-[3-(cyclopentylamino)-6-fluoro-4-hydroimidazo[1,2-a]pyridin-2-yl]phenol] | 26.6981
O=C(c1ccc2nc(-c3ccccc3O)c(NCc3cccc(Cl)c3)n2c1)N1CCOCC1 [3-{[(3-chlorophenyl)methyl]amino}-2-(2-hydroxyphenyl)(4-hydroimidazo[1,2-a]pyridin-6-yl) morpholin-4-yl ketone] | 24.9925
Oc1ccc(-c2nc3ccccn3c2NCc2cccc(Cl)c2)cc1 [4-(3-{[(3-chlorophenyl)methyl]amino}-4-hydroimidazo[1,2-a]pyridin-2-yl)phenol] | 10.5567
CCC(C)(C)Nc1c(-c2cc3ccc(C)c(C)c3nc2O)nc2ccccn12 [3-{3-[(1,1-dimethylpropyl)amino](4-hydroimidazo[1,2-a]pyridin-2-yl)}-7,8-dimethylquinolin-2-ol] | 1.5814
Cc1ccn2c(NC3CCCC3)c(-c3ccc(O)cc3)nc2c1 [4-[3-(cyclopentylamino)-7-methyl-4-hydroimidazo[1,2-a]pyridin-2-yl]phenol] | 4.685
COC(=O)c1ccn2c(NCc3cccc(Cl)c3)c(-c3ccccc3O)nc2c1 [methyl 3-{[(3-chlorophenyl)methyl]amino}-2-(2-hydroxyphenyl)-4-hydroimidazo[1,2-a]pyridine-7-carboxylate] | 5.1088

Reference: US20100173930A1, “Certain Chemical Entities, Compositions and Methods” (priority 2006, published 2010)
